# Assay results from patent publication US8802686B2, “Sulfone-substituted anilinopyrimidine derivatives as CDK inhibitors, the production thereof, and use as a medicine” (Bayer Intellectual Property GmbH, priority 2008, dated 2014).
# Where two headings read alike, the source gives them in different places.
# Legend:
# CDK1/CycB = CDK1/CycB (Homo sapiens (Human), UniProt P06493); test: CDK1/CycB kinase assay (Assay 1); type: biochemical; conditions: read-out: CDK1/CycB (Assay 1) Concentration of the half-maximal inhibition of the enzyme activity, IC50
# Sequence of CDK1/CycB (P06493 whole entry): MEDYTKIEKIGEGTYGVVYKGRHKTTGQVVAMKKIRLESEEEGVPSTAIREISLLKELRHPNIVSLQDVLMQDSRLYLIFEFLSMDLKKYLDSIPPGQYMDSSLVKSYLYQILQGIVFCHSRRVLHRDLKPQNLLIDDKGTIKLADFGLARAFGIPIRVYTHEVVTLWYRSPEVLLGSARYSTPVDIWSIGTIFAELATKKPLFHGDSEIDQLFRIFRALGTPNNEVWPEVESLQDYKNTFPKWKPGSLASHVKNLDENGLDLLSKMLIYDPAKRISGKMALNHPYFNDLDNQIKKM
# Sequence of CDK1/CycB (P14635 whole entry partner): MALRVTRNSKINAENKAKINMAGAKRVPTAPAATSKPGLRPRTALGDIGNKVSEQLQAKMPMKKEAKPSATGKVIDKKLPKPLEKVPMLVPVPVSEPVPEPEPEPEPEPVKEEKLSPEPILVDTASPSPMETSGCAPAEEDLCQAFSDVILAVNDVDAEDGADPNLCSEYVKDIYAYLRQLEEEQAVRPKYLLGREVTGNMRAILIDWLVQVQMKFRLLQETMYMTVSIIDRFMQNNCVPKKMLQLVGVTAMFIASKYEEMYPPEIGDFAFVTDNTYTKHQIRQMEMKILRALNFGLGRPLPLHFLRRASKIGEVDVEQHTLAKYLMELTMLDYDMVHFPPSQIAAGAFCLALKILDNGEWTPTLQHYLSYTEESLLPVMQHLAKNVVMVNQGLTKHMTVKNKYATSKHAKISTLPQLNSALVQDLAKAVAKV
# Description: CDK1/CycB (200 ng/measuring point) was incubated for 10 min at 22° C. in the presence of different concentrations of test substances (0 and within the range 0.001-10 μM) in assay buffer [50 mM Tris/HCl pH 8.0; 10 mM MgCl2; 0.1 mM Na ortho-vanadate; 1.0 mM dithiothreitol; 0.5 μM adenosine trisphosphate (ATP); 10 μg/measuring point histone IIIS; 0.2 μCi/measuring point ^33P-gamma ATP; 0.05% NP40; 1.25% dimethyl sulphoxide]. The reaction was stopped by adding EDTA solution (250 mM; pH 8.0; 15 μl/measuring point).
# From each reaction mixture, 15 μl were applied to P30 filter strips (Wallac), and unincorporated ^33P-ATP was removed by washing the filter strips three times, for 10 min in each case, in 0.5% phosphoric acid. After drying the filter strips for 1 hour at 70°, the filter strips were covered with scintillator strips (MeltiLex™ A, Wallac) and stoved for 1 hour at 90° C. The amount of incorporated ^33P (substrate phosphorylation) was determined by scintillation measurement in a gamma-radiation measuring instrument (Wallac). […] The IC50 values were determined by means of a 4-parameter fit using the company's own software.
# CDK2/CycE = CDK2/CycE (Homo sapiens (Human), UniProt P24941); test: CDK2/CycE kinase assay (Assay 2); type: biochemical; conditions: read-out: CDK2/CycE (Assay 2) Concentration of the half-maximal inhibition of the enzyme activity, IC50
# Description: Recombinant CDK2 and CycE-GST fusion proteins, purified from baculovirus-infected insect cells (Sf9), were purchased from ProQinase GmbH, Freiburg. Histone IIIS, which was used as kinase substrate, was purchased from Sigma.
# CDK2/CycE (50 mg/measuring point) was incubated for 10 min at 22° C. in the presence of different concentrations of test substances (0 μM, and within the range 0.001-10 μM) in assay buffer [50 mM Tris/HCl pH 8.0; 10 mM MgCl2; 0.1 mM Na ortho-vanadate; 1.0 mM dithiothreitol; 0.5 μM adenosine trisphosphate (ATP); 10 μg/measuring point histone IIIS; 0.2 μCi/measuring point ^33P-gamma ATP; 0.05% NP40; 1.25% dimethyl sulphoxide]. The reaction was stopped by adding EDTA solution (250 mM; pH 8.0; 15 μl/measuring point).
# (§2) From each reaction mixture, 15 μl were applied to P30 filter strips (Wallac), and unincorporated ^33P-ATP was removed by washing the filter strips three times, for 10 min in each case, in 0.5% phosphoric acid. After drying the filter strips for 1 hour at 70° C., the filter strips were covered with scintillator strips (MeltiLex™ A, Wallac) and stoved for 1 hour at 90° C. The amount of incorporated ^33P (substrate phosphorylation) was determined by scintillation measurement in a gamma-radiation measuring instrument (Wallac). […] The IC50 values were determined by means of a 4-parameter fit using the company's own software.
# CDK4/CycD1 = CDK4/CycD1 (Homo sapiens (Human), UniProt P11802); test: CDK4/CycD kinase assay (Assay 3); type: biochemical; conditions: read-out: CDK4/CycD (Assay 3) Concentration of the half-maximal inhibition of the enzyme activity, IC50
# Sequence of CDK4/CycD1 (P11802 whole entry, the tested form may be a part): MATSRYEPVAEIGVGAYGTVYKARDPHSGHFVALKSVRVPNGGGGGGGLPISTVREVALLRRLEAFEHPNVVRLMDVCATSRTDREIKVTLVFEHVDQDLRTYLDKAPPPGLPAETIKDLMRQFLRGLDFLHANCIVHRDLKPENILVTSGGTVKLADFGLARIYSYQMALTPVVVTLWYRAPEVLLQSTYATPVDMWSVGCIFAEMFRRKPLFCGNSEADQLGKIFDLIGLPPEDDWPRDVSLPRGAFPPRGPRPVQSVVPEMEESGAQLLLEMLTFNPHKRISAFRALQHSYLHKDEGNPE
# Sequence of CDK4/CycD1 (P24385 whole entry partner, the tested form may be a part): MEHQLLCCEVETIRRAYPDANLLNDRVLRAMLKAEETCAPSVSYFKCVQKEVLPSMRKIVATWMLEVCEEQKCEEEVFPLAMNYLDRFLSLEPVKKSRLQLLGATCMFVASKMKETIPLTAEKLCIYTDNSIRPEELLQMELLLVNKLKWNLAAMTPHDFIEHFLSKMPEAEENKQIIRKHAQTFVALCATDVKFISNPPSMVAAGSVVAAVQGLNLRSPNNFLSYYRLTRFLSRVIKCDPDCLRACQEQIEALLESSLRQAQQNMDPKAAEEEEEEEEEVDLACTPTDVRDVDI
# Description: Recombinant CDK4 and CycD1-GST fusion proteins, purified from baculovirus-infected insect cells (Sf9), were purchased from ProQinase GmbH, Freiburg. CDK4/CycD1 (250 ng/measuring point) was incubated for 3 hours at 22° C. in the presence of different concentrations of test substances (0 μM, and within the range 0.001-10 μM) in 31 μl of assay buffer [50 mM Hepes pH 7.0; 2.5 mM MnCl; 0.05 mM Na ortho-vanadate; 1.0 mM dithiothreitol; 0.25 μM adenosine trisphosphate (ATP); 0.5 μM biotinylated myelin basic protein (bio-MPB, GE Healthcare); 0.05 μCi/measuring point ^33P-gamma ATP; 0.005% NP40; 0.025% bovine serum albumin; 3% dimethyl sulphoxide]. The reaction was stopped by adding 50 μl of stop-mix [100 μM ATP; 10 mM EDTA pH 8.0; 0.2% Triton X100; 0.125 mg of streptavidin-SPA Beads (GE Healthcare)]. After incubation for 10 min at room temperature, the SPA beads were pelleted by centrifugation (10 min; 1500 g). The amount of incorporated ^33P (substrate phosphorylation) was determined by scintillation measurement in a beta-radiation measuring instrument (Microbeta, Perkin Elmer).
# [1] = target: VEGF receptor tyrosine kinase-2 (VEGF-R2) (Homo sapiens (Human), UniProt P35968); test: VEGF receptor-2 kinase assay (Assay 4); type: biochemical; conditions: read-out: VEGF-R2 (Assay 4) Concentration of the half-maximal inhibition of the enzyme activity, IC50
# Sequence of VEGF receptor tyrosine kinase-2 (VEGF-R2) (P35968 20-1356, species assumed): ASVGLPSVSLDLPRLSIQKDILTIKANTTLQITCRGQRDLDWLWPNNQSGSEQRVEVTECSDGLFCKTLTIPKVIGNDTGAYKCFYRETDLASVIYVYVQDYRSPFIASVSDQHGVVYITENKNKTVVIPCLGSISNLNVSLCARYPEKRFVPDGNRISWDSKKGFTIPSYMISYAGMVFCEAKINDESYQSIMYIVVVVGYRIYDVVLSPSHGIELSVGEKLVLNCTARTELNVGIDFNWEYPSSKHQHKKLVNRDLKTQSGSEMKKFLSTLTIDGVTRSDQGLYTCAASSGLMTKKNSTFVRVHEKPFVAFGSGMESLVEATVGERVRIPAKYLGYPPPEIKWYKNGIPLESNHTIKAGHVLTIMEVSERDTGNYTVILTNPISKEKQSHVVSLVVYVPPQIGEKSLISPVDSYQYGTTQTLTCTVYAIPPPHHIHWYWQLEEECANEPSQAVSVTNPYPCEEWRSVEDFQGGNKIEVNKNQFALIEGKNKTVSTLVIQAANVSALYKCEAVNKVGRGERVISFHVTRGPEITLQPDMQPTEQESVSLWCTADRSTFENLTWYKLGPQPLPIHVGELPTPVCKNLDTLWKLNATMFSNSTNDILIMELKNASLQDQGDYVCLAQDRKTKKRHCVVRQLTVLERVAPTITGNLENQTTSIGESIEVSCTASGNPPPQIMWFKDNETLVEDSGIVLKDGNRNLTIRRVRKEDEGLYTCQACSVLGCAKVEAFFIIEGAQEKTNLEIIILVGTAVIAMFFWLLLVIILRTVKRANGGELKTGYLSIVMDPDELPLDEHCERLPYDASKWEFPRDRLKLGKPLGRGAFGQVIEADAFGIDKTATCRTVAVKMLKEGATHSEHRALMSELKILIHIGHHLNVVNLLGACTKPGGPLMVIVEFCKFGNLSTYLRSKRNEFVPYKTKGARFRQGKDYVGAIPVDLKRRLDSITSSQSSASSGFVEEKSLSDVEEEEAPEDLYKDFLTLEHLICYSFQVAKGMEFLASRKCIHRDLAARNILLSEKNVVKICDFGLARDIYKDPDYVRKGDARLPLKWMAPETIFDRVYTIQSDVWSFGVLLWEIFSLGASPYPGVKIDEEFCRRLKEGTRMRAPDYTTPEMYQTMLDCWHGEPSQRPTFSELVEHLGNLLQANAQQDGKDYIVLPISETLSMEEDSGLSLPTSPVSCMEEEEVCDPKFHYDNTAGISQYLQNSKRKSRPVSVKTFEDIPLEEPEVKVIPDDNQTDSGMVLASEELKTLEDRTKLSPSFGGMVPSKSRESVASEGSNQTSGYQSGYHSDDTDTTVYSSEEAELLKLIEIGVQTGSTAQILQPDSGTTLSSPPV
# Description: Recombinant VEGF receptor tyrosine kinase-2 was purified as GST fusion protein from baculovirus-infected insect cells (Sf9). Poly-(Glu4Tyr), which was used as kinase substrate, was purchased from Sigma.
# VEGF receptor tyrosine kinase (90 ng/measuring point) was incubated for 10 min at 22° C. in the presence of different concentrations of test substances (0 μM, and within the range 0.001-10 μM) in 30 μl of assay buffer [40 mM Tris/HCl pH 5.5; 10 mM MgCl2; 1 mM MnCl2; 3 μM Na ortho-vanadate; 1.0 mM dithiothreitol; 8 μM adenosine trisphosphate (ATP); 0.96 μg/measuring point poly-(Glu4Tyr); 0.2 μCi/measuring point ^33P-gamma ATP; 1.4% dimethyl sulphoxide]. The reaction was stopped by adding EDTA solution (250 mM; pH 8.0; 15 μl/measuring point).
# as §2
# [2] = test system: HeLa-MaTu-ADR (HeLa-MaTu-MDR, multiple drug-resistant human cervix carcinoma cells); test: Proliferation assay (Assay 5), HeLa-MaTu-ADR; type: cell-based; conditions: 96 h, read-out: Concentration of the half-maximal inhibition of the cell proliferation, IC50
# Excerpt: (§1) Cultivated human tumour cells (MCF7, hormone-independent human breast carcinoma cells, acquired from ATCC HTB22; NCI-H460, human non-small-cell lung carcinoma cells, ATCC HTB-177; DU 145, hormone-independent human prostrate carcinoma cells, ATCC HTB-81; HeLa-MaTu, human cervix carcinoma cells, EPO-GmbH, Berlin; HeLa-MaTu-MDR, multiple drug-resistant human cervix carcinoma cells, EPO-GmbH, Berlin; Caco-2, human colon carcinoma cells, ATCC HTB-37; B16F10, murine melanoma cell, ATCC CRL-6475) were plated out at a density of ca. 1000-5000 cells/measuring point, depending on the growth rate of the particular cells, in a 96-well multititre plate in 200 μl of the corresponding growth medium. After 24 hours, the cells of one plate (zero-point plate) were stained with crystal violet (see below), whereas the medium of the other plates was replaced with fresh culture medium (200 μl), to which the test substances had been added at different concentrations (0 μM, and in the range 0.003-3 μM; the final concentration of the solvent dimethyl sulphoxide was 0.5%). The cells were incubated for 4 days in the presence of the test substances. Cell proliferation was determined by staining the cells with crystal violet: the cells were fixed by adding 20 μl/measuring point of an 11% glutaraldehyde solution for 15 min at room temperature. After washing the fixed cells with water three times, the plates were dried at room temperature. The cells were stained by adding 100 μl/measuring point of a 0.1% crystal violet solution (pH adjusted to pH 3 by adding acetic acid). After washing the stained cells with water three times, the plates were dried at room temperature. The dye was dissolved by adding 100 μl/measuring point of a 10% acetic acid solution. The extinction was determined photometrically at a wavelength of 595 nm. […] The IC50 values were determined by means of a 4-parameter fit using the company's own software.
# [3] = test system: MCF7, hormone-independent human breast carcinoma cells; test: Proliferation assay (Assay 5), MCF7; type: cell-based; conditions: read-out: Concentration of the half-maximal inhibition of the cell proliferation, IC50
# Excerpt: as §1
# [4] = test system: NCI-H460, human non-small-cell lung carcinoma cells; test: Proliferation assay (Assay 5), NCI-H460; type: cell-based; conditions: read-out: Concentration of the half-maximal inhibition of the cell proliferation, IC50
# Excerpt: as §1
# [5] = test system: DU 145, hormone-independent human prostrate carcinoma cells; test: Proliferation assay (Assay 5), DU145; type: cell-based; conditions: DU-145, 96 h, read-out: Concentration of the half-maximal inhibition of the cell proliferation, IC50
# Excerpt: as §1
# [6] = test system: Caco-2, human colon carcinoma cells; test: Proliferation assay (Assay 5), Caco-2; type: cell-based; conditions: read-out: Concentration of the half-maximal inhibition of the cell proliferation, IC50
# Excerpt: as §1
# [7] = test system: B16F10, murine melanoma cell; test: Proliferation assay (Assay 5), B16F10; type: cell-based; conditions: Mus musculus, B16-F10, 96 h, read-out: Concentration of the half-maximal inhibition of the cell proliferation, IC50
# Excerpt: as §1
# [8] = Permeability assay (Assay 6), Caco-2 monolayer; type: in vitro ADME; conditions: human; for efflux ratio at 90 min: Caco-2, read-out: ratio (b-a)/(a-b); for Papp A→B at 90 min / Papp B→A at 90 min: Caco-2, 90 min, 37° C.; for Papp A→B at 90 min: read-out: Permeation coefficient, Papp apical-basolateral (a-b); for Papp B→A at 90 min: read-out: Permeation coefficient, Papp basolateral-apical (b-a)
# Description: The Caco-2 monolayer is a barrier between 2 compartments. The cells here behave similarly to the small intestine cells. Active ingredients can be transported either paracellularly or transcellularly. Here, the transport takes place in most cases from apical (luminal) to basolateral (serosal). In the case of p-glycoprotein substrates, back-transport from basolateral to apical is also usually observed.
# Experimental procedure: The permeability test is carried out both from apical to basolateral and also from basolateral to apical. For this, two filters are used per substance; incubation takes place over 90 min at 37° C. in a water bath. […] As reference substances, (i) PEG 4000 are used as hydrophilic marker. On account of its high molecular weight, it is unable to permeate into the cell membrane or into the pores of the tight junctions. PEG 4000 is therefore a marker of the intactness of the cell monolayer and the narrowness of the tight junctions. PEG 4000 is not absorbed in humans. (ii) Clonidine is known as completely absorbed substances in people (100%). They serve as markers for very highly permeable substances with Papp values above 100 nm/s. (iii) Digoxin is a known Pgp substrate. […] In the reverse experiment (basolateral to apical), the Papp values should be higher by a factor of about 10 as a result of the active directional transport into the apical compartment.
# The permeation coefficient Papp is used to estimate the absorption in people according to the following scheme: […]
# Caco-2 monolayer = conditions: reference substance, cited from earlier work
# [9] = reference substance; cited from earlier work
# [10] = test system: HeLa-MaTu, human cervix carcinoma cells; test: Proliferation assay (Assay 5), HeLa-MaTu; type: cell-based; conditions: 96 h, read-out: Concentration of the half-maximal inhibition of the cell proliferation, IC50
# Excerpt: as §1
IC50 (CDK1/CycB) [nM],IC50 (CDK2/CycE) [nM],IC50 (CDK4/CycD1) [nM],"IC50 ([2]; HeLa-MaTu-ADR, 4 days) [nM]","IC50 ([3]; 96 h, MCF7, 4 days) [nM]","IC50 ([4]; 96 h, NCI-H460, 4 days) [nM]","IC50 ([5]; DU145, 4 days) [nM]","IC50 ([6]; 96 h, Caco-2, 4 days) [nM]","IC50 ([7]; B16F10, 4 days) [nM]",efflux ratio at 90 min [8],Papp A→B at 90 min [8] [×10⁻⁶ cm/s],Papp B→A at 90 min [8] [×10⁻⁶ cm/s],"IC50 ([10]; HeLa-MaTu, 4 days) [nM]",Compound,further results
4,4,35,32,43,34,75,76,89,1,18,17.8,–,"C[C@@H](O)[C@@H](C)Nc1nc(Nc2ccc(S(C)(=O)=O)cc2)ncc1C(F)(F)F [C2, (2R,3R)-3-[2-(4-Methanesulphonylphenylamino)-5-trifluoromethylpyrimidin-4-ylamino]butan-2-ol, reference compound]",IC50 [1]: 92 nM
–,–,–,–,–,–,–,–,–,–,–,–,–,Clc1cccc(Cl)c1N=C1NCCN1 [Clonidine],Papp values of reference marker (Caco-2 monolayer): above 100 nm/s; absorbed in people [9]: 100%
–,–,–,–,–,–,–,–,–,–,–,–,–,C[C@H]1O[C@@H](O[C@H]2[C@@H](O)C[C@H](O[C@H]3[C@@H](O)C[C@H](O[C@H]4CC[C@@]5(C)[C@H](CC[C@@H]6[C@@H]5C[C@@H](O)[C@]5(C)[C@@H](C7=CC(=O)OC7)CC[C@]65O)C4)O[C@@H]3C)O[C@@H]2C)C[C@H](O)[C@@H]1O [Digoxin],permeability from apical to basolateral (Caco-2 monolayer; Pgp substrate): low permeability
16,16,20,9,23,41,17,45,49,0.9,16.5,14.7,11,"C[C@@H](O)[C@@H](C)Oc1nc(Nc2ccc(S(=O)(=O)C3CC3)cc2)ncc1C(F)(F)F [Example 1, (2R,3R)-3-[2-(4-Cyclopropanesulphonylphenylamino)-5-trifluoromethylpyrimidin-4-yloxy]butan-2-ol]",–
32,12,78,39,160,140,74,180,270,–,–,–,35,"C[C@@H](Oc1nc(Nc2ccc(S(C)(=O)=O)cc2)ncc1C(F)(F)F)C(C)(C)O [Example 3, (R)-3-[2-(4-Methanesulphonylphenylamino)-5-trifluoromethylpyrimidin-4-yloxy]-2-methylbutan-2-ol]",–

Compound,IC50 (CDK1/CycB) [nM],IC50 (CDK2/CycE) [nM],IC50 (CDK4/CycD1) [nM],"IC50 ([2]; HeLa-MaTu-ADR, 4 days) [nM]","IC50 ([3]; 96 h, MCF7, 4 days) [nM]","IC50 ([4]; 96 h, NCI-H460, 4 days) [nM]","IC50 ([5]; DU145, 4 days) [nM]","IC50 ([6]; 96 h, Caco-2, 4 days) [nM]","IC50 ([7]; B16F10, 4 days) [nM]",efflux ratio at 90 min [8],Papp A→B at 90 min [8] [×10⁻⁶ cm/s],Papp B→A at 90 min [8] [×10⁻⁶ cm/s],"IC50 ([10]; HeLa-MaTu, 4 days) [nM]",further results
"C[C@@H](O)[C@@H](C)Oc1nc(Nc2ccc(S(C)(=O)=O)cc2)ncc1C(F)(F)F [Example 2, (2R,3R)-3-[2-(4-Methanesulphonylphenylamino)-5-trifluoromethylpyrimidin-4-yloxy]butan-2-ol]",–,–,24,–,–,–,–,–,–,–,19.6,19.4,–,"IC50 [10]: 14 nM; IC50 [2]: 14 nM; IC50 ([3]; MCF7, 96 h): 35 nM; IC50 ([4]; NCI-H460, 96 h): 38 nM; IC50 [5]: 34 nM; IC50 ([6]; Caco-2, 96 h): 66 nM; IC50 [7]: 70 nM"
